Source: patent publication US5352462A, “Anti-inflammatory factor, method of isolation, and use” (Stolle Research & Development Corporation, priority 1992, dated 1994)

How the values were obtained:
[1] = test system: reverse passive Arthus reaction; test: Reverse passive Arthus reaction; type: in vivo, rat; conditions: 20 mg i.v.
Description: The possibility that the anti-inflammatory factor might affect neutrophil involvement was investigated by evaluating the ability of the material to modulate the reverse passive Arthus reaction (RPA). This immune complex-induced response is primarily neutrophil mediated and agents which affect the development of the reaction do so via an effect on these cells. To induce the RPA, rats were injected intradermally with rabbit antibody to ovalbumin and intravenously with native ovalbumin. Ovalbumin/ovalbumin-antibody immune complexes form in and around the dermal blood vessel walls, host neutrophils bind to the Fc portion of the antibody and an intense inflammatory reaction is initiated. It should be noted that, although the response is initiated by immune-complexes, it takes place independently of the host's immune system.
Three parameters are used to quantify the RPA. These are, (1) edema--measured using the accumulation of ^125 I-HSA, (2) hemorrhage--assessed by in vivo pre-labelling RBC's with ^59 Fe and (3) neutrophil accumulation--measured by determining tissue levels of the neutrophils specific enzyme myeloperoxidase (MPO). These assays are known to those of ordinary skill in the art.
Eighteen rats were divided into three groups of six. Rabbit antiovalbumin (40 μl) was injected intradermally at four sites on the back of each animal and 2 mg of ovalbumin injected intravenously immediately afterwards. One group of animals received no other treatment and served as controls. The second group were injected intravenously with 20 mg of a lactose preparation, while the final group were injected intravenously with 20 mg of a purified preparation of MAIF. Both lactose and MAIF preparation were administered with the ovalbumin. The severity of the reaction was assessed 3.5 hours after challenge.

[2] = test system: neutrophil adhesion to venular endothelium; test: Intravital microscopy of PAF-exposed rat mesenteric venules; type: in vivo; conditions: PAF superfusion 100 nM, 60 min
Description: The temperature of the pedestal was maintained at 37° C. with a constant temperature circulator (Fisher Scientific, model 80).

[3] = test system: carrageenan-induced footpad edema; test: Quantitative rat paw edema test with 125I-HSA; type: in vivo; conditions: aspirin 200 mg/kg oral, 30 min prior
Description: Peak I from the G-10 column, supplied by Stolle Milk Biologics International, was prepared according to the methods described in U.S. Pat. No. 4,956,349. Lactose, obtained from commercial sources, was used as placebo. Aspirin was used as a positive control. Aspirin was dissolved in water and given orally by gastric gavage at the ratio of 200 mg per kilogram, a dose known to be active in the assay. […] The footpad assay was modified by using isotopically labeled human serum albumin (^125 I-HSA) that localizes in the carrageenan-induced lesion in direct proportion to the volume of the exudate. By determining the total radioactive count in the footpad and comparing this to the counts in a known volume of plasma from the injected animal, a direct measurement of edema in microliters of plasma equivalents is obtained. ^125 I-HSA was injected intravenously at a dose of 1.0 microcurie per rat. Female Dark Agouti rats were used. […]
To conduct the carrageenan footpad assay, 0.1 ml of 2% carrageenan was injected subcutaneously into each hind foot pad of an anesthetized rat. […] Both hind feet were then removed and the levels of radioactivity in each foot and in the 200 μl plasma standard were measured in an automated gamma counter. From these measurements the volume of edema in each foot was calculated and expressed in microliters. […]

[4] = test system: circulating neutrophils and lymphocytes; test: Circulating leucocytes after i.v. administration; type: in vivo, rat
Description: Two experiments were done. In the first, the MAIF preparation was administered intravenously at a dose of 40 mg/rat to one group of 6 animals and a control group was injected with saline. Blood samples were obtained at baseline, 1, 4, and 24 hours after treatment.
A further dose-response study was carried out in which a group of rats were injected intravenously with saline, 5, 10 or 20 mg of the MAIF preparation. Blood from each rat had been taken 7 days previously to provide baseline values and was taken again 4 hours after the injection of MAIF. Included on the graph are the results obtained from the sample taken 4 hours after the administration of 40 mg the MAIF preparation (see FIG. 31).
Data were also obtained pertaining to the effect of three other cell-targeted, anti-inflammatory/immunomodulatory agents on circulating leucocytes in the rat. […] The temporal relationship between drug administration and effect is somewhat different. […] The effects of the anti-inflammatory factor would appear to closely parallel the action of methyl-prednisolone.

[5] = test system: superoxide production by neutrophils; test: Superoxide assay, cytochrome C reduction by stimulated neutrophils; type: cell-based, human
Description: Neutrophils from healthy donors were purified by dextran sedimentation followed by hypotonic lysis and Histopaque centrifugation. Except for the dextran sedimentation step, which was performed at room temperature, the cells were kept at 4° C. throughout the isolation procedure. […] After isolation, neutrophils were resuspended at a final concentration of 2×10^6 cells/ml in phosphate buffered saline (PBS). […] After washing, neutrophils were incubated in the dark at 4° C. for 30 minutes with saturating concentrations of fluorescein-conjugated murine anti-human CD18, human CD11 b, IGG coated microbeads (Simply Cellular™ microbeads) or the murine negative control antibody.
The reduction of cytochrome C by activated neutrophils was measured using a spectrophotometer (Hitachi U2000) at 550 nm. Briefly, sample was added to two cuvettes and one cuvette was used as a reference. The latter contained superoxide dismutase (superoxide scavenger). […] Superoxide production was measured for 3 min.

Molecule: OC[C@H]1O[C@@H](O[C@H]2[C@H](O)[C@@H](O)C(O)O[C@@H]2CO)[C@H](O)[C@@H](O)[C@H]1O (stereo partly drawn) [Lactose]
- suppression of neutrophil accumulation and hemorrhage [1]: modest and marginally significant suppression
- Haemorrhage: μl of RBC ([1]; 3.5 hours after challenge): 3.0 ± 1.5 μl of RBC
- Neutrophil accumulation: Units of MPO ([1]; 3.5 hours after challenge): 0.214 ± .176 Units of MPO
- μl of Edema ([1]; 3.5 hours after challenge): 104 ± 23 µL

Molecule: CCCCCCCCCCCCCCCCOCC(COP(=O)([O-])OCC[N+](C)(C)C)OC(C)=O (stereo not drawn) [PAF]
- increase in neutrophil adhesion to postcapillary venules [2]: approximately 6 fold

Molecule: CC(=O)Oc1ccccc1C(=O)O [aspirin, Acetylsalicylic acid]
- inhibition of edema [3]: inhibited

Molecule: O=P1(N(CCCl)CCCl)NCCCO1 (stereo not drawn) [cyclophosphamide]
- circulating lymphocytes and neutrophils ([4]; comparator agents): depletes both circulating lymphocytes and neutrophils

Molecule: C[C@H]1C[C@@H]2[C@H]([C@@H](O)C[C@@]3(C)[C@H]2CC[C@]3(O)C(=O)CO)[C@@]2(C)C=CC(=O)C=C12 [methylprednisolone]
- lymphocyte/neutrophil ratio ([4]; rat, in vivo): analogous to that seen with MAIF

Molecule: superoxide dismutase
- cytochrome c reduction by PMA and fMLP-stimulated neutrophils [5]: completely blocked
